Data taken from patent US6472418B1, “Non-peptide NK1 receptors antagonists” (Warner-Lambert Company, priority 1998, dated 2002).

Target: T1, Human NK1 Receptor (Homo sapiens, UniProt P25103)
T1 construct: endogenous in cells; host or cells: Human lymphoma IM9 cells (whole cells)
Assay: In Vitro Human NK1 Receptor Binding Assay ([125I]Bolton-Hunter substance P displacement, IM9 cells)
Conditions: Table 4; [125I]Bolton-Hunter substance P displacement, human IM9 cells; read-out: IC50 (nM) hNK1
Procedure, shortened: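 Test compounds competed with 0.05-0.1 nM [125I]Bolton-Hunter substance P for binding to intact IM9 cells over 50 min at 21° C, pH 7.4 buffer with MnCl2 and peptidase inhibitors. […] [Sar9, Met(O2)11] substance P gave non-specific binding. Bound counts were measured after filtration and fitted iteratively.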

T1 sequence (P25103 whole entry): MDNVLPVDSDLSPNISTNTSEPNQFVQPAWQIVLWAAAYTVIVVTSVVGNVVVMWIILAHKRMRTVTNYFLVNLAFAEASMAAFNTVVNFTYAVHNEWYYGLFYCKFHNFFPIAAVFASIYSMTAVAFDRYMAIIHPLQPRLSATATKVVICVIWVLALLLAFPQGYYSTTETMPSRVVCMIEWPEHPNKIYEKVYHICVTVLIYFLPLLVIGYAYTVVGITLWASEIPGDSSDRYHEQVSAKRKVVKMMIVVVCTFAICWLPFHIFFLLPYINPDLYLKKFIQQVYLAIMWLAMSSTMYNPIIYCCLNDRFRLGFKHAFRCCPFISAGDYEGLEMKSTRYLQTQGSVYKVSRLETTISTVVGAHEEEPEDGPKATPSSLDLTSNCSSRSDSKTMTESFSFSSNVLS

| Structure (SMILES) | IC50 [nM] |
| --- | --- |
| CC(NC(=O)C(C)(Cc1c[nH]c2ccccc12)NCc1ccc2ccccc2n1)c1ccccc1 (centres unmarked) [compound 311, 3-(1H-Indol-3-yl)-2-methyl-N-(1-phenyl-ethyl)-2-[(quinolin-2-ylmethyl)-amino]-propionamide] | 88 |
| CC(NC(=O)C(C)(Cc1c[nH]c2ccccc12)NCc1cncc2ccccc12)c1ccccc1 (centres unmarked) [compound 318, 3-(1H-Indol-3-yl)-2-[(isoquinolin-4-ylmethyl)-amino]-2-methyl-N-(1-phenyl-ethyl)-propionamide] | 1600 |
| CC(NC(=O)C(C)(Cc1c[nH]c2ccccc12)NCCNC(=O)CN1C(=O)c2ccccc2C1=O)c1ccccc1 (centres unmarked) [compound 321, 2-{2-[2-(1,3-Dioxo-1,3-dihydro-isoindol-2-yl)-acetylamino]-ethylamino}-3-(1H-indol-3-yl)-2-methyl-N-(1-phenyl-ethyl)-propionamide] | 3040 |
| CC(NC(=O)C(C)(Cc1c[nH]c2ccccc12)NCC=Cc1ccco1)c1ccccc1 (centres unmarked) [compound 322, 2-(3-Furan-2-yl-allylamino)-3-(1H-indol-3-yl)-2-methyl-N-(1-phenyl-ethyl)-propionamide] | 91 |
| CC(NC(=O)C(C)(Cc1c[nH]c2ccccc12)NCc1ccccc1OCc1ccccn1)c1ccccc1 (centres unmarked) [compound 323, 3-(1H-Indol-3-yl)-2-methyl-N-(1-phenyl-ethyl)-2-[2-(pyridin-2-ylmethoxy)-benzylamino]-propionamide] | 3180 |
| CC(NC(=O)C(C)(Cc1c[nH]c2ccccc12)NCc1ccccc1OCc1cccnc1)c1ccccc1 (centres unmarked) [compound 324, 3-(1H-Indol-3-yl)-2-methyl-N-(1-phenyl-ethyl)-2-[2-(pyridin-3-ylmethoxy)-benzylamino]-propionamide] | 2970 |
| CC(NC(=O)C(C)(Cc1c[nH]c2ccccc12)NCc1ccc(C=Cc2ccccc2)o1)c1ccccc1 (centres unmarked) [compound 325, 3-(1H-Indol-3-yl)-2-methyl-N-(1-phenyl-ethyl)-2-[(5-styryl-furan-2-ylmethyl)-amino]-propionamide] | 72 |
| CNS(=O)(=O)c1cc(CNC(C)(Cc2c[nH]c3ccccc23)C(=O)NC(C)c2ccccc2)ccc1Cl (centres unmarked) [compound 326, 2-(4-Chloro-3-methylsulfamoyl-benzylamino)-3-(1H-indo1-3-yl)-2-methyl-N-(1-phenyl-ethyl)-propionamide] | 4830 |
| CC(NC(=O)C(C)(Cc1c[nH]c2ccccc12)NCc1ccc(OCCCC(C)(C)C(=O)O)cc1)c1ccccc1 (centres unmarked) [compound 327, 5-(4-{[2-(1H-Indol-3-yl)-1-methyl-1-(1-phenyl-ethylcarbamoyl)-ethylamino]-methyl}-phenoxy)-2,2-dimethyl-pentanoic acid] | > 10000 |
| CC(C)C=CCC1=CCC(CNC(C)(Cc2c[nH]c3ccccc23)C(=O)NC(C)c2ccccc2)CC1 (centres unmarked) [compound 328, 3-(1H-Indol-3-yl)-2-methyl-2-{[4-(4-methyl-pent-2-enyl)-cyclohex-3-enylmethyl]-amino}-N-(1-phenyl-ethyl)-propionamide] | > 10000 |
| CCOC(=O)Nc1ccccc1CNC(C)(Cc1c[nH]c2ccccc12)C(=O)NC(C)c1ccccc1 (centres unmarked) [compound 329, (2-{[2-(1H-Indol-3-yl)-1-methyl-1-(1-phenyl-ethylcarbamoyl)-ethylamino]-methyl}-phenyl)-carbamic acid ethyl ester] | 4190 |
| CNS(=O)(=O)c1cc(Cl)ccc1CNC(C)(Cc1c[nH]c2ccccc12)C(=O)NC(C)c1ccccc1 (centres unmarked) [compound 330, 2-(4-Chloro-2-methylsulfamoyl-benzylamino)-3-(1H-indol-3-yl)-2-methyl-N-(1-phenyl-ethyl)-propionamide] | 1100 |
| CC(NC(=O)C(C)(Cc1c[nH]c2ccccc12)NCc1ccc(OCCN(C)C)cc1)c1ccccc1 (centres unmarked) [compound 331, 2-[4-(2-Dimethylamino-ethoxy)-benzylamino]-3-(1H-indol-3-yl)-2-methyl-N-(1-phenyl-ethyl)-propionamide] | > 10000 |
| CC(NC(=O)C(C)(Cc1c[nH]c2ccccc12)NCC(Cc1ccccc1)c1ccccc1)c1ccccc1 (centres unmarked) [compound 332, 2-(2,3-Diphenyl-propylamino)-3-(1H-indol-3-yl)-2-methyl-N-(1-phenyl-ethyl)-propionamide] | 4940 |
| CC(NC(=O)C(C)(Cc1c[nH]c2ccccc12)NCc1cc2ccccc2o1)c1ccccc1 (centres unmarked) [compound 343, 2-[(Benzofuran-2-ylmethyl)-amino]-3-(1H-indol-3-yl)-2-methyl-N-(1-phenyl-ethyl)-propionamide] | 13 |
| CC(NC(=O)C(C)(Cc1c[nH]c2ccccc12)NCc1cccc(OCc2ccccc2)c1)c1ccccc1 (centres unmarked) [compound 344, 2-(3-Benzyloxy-benzylamino)-3-(1H-indol-3-yl)-2-methyl-N-(1-phenyl-ethyl)-propionamide] | 185 |

Other lines, results leading:

| IC50 [nM] | Structure (SMILES) |
| --- | --- |
| 169 | CC(NC(=O)C(C)(Cc1c[nH]c2ccccc12)NCc1ccc2ccccc2c1)c1ccccc1 (centres unmarked) [compound 309, 3-(1H-Indol-3-yl)-2-methyl-2-[(naphthalen-2-ylmethyl)-amino]-N-(1-phenyl-ethyl)-propionamide] |
| 3320 | CC(NC(=O)C(C)(Cc1c[nH]c2ccccc12)NCc1ccccn1)c1ccccc1 (centres unmarked) [compound 310, 3-(1H-Indol-3-yl)2-methyl-N-(1-phenyl-ethyl)-2-[(pyridin-2-ylmethyl)-amino]-propionamide] |
| 1820 | CC(NC(=O)C(C)(Cc1c[nH]c2ccccc12)NCc1ccoc1)c1ccccc1 (centres unmarked) [compound 312, 2-[(Furan-3-ylmethyl)-amino]-3-(1H-indol-3-yl)-2-methyl-N-(1-phenyl-ethyl)-propionamide] |
| 141 | CC(NC(=O)C(C)(Cc1c[nH]c2ccccc12)NCc1ccco1)c1ccccc1 (centres unmarked) [compound 314, 2-[(Furan-2-ylmethyl)-amino]-3-(1H-indol-3-yl)-2-methyl-N-(1-phenyl-ethyl)-propionamide] |
| 1070 | CC(NC(=O)C(C)(Cc1c[nH]c2ccccc12)NCc1cnc2ccccc2c1)c1ccccc1 (centres unmarked) [compound 315, 3-(1H-Indol-3-yl)-2-methylN-(1-phenyl-ethyl)-2-[(quinolin-3-ylmethyl)-amino]-propionamide] |
| > 10000 | CC(NC(=O)C(C)(Cc1c[nH]c2ccccc12)NCc1nc2ccccc2[nH]1)c1ccccc1 (centres unmarked) [compound 316, 2-[(1H-Benzoimidazol-2-ylmethyl)-amino]-3-(1H-indol-3-yl)-2-methyl-N-(1-phenyl-ethyl)-propionamide] |
| > 10000 | COc1ccc2oc(CNC(C)(Cc3c[nH]c4ccccc34)C(=O)NC(C)c3ccccc3)cc2c1 (centres unmarked) [compound 317, 3-(1H-Indol-3-yl)-2-[(5-methoxy-benzofuran-2-ylmethyl)-amino]-2-methyl-N-(1-phenyl-ethyl)-propionamide] |
| 2100 | COc1ccc2cc(CNC(C)(Cc3c[nH]c4ccccc34)C(=O)NC(C)c3ccccc3)oc2c1 (centres unmarked) [compound 319, 3-(1H-Indol-3-yl)-2-[(6-methoxy-benzofuran-2-ylmethyl)-amino]-2-methyl-N-(1-phenyl-ethyl)-propionamide] |
| 5970 | CC(NC(=O)C(C)(Cc1c[nH]c2ccccc12)NCc1cccnc1)c1ccccc1 (centres unmarked) [compound 320, 3-(1H-Indol-3-yl)-2-methyl-N-(1-phenyl-ethyl)-2-[(pyridin-3-ylmethyl)-amino]-propionamide] |
| 609 | CSc1ccc(CNC(C)(Cc2c[nH]c3ccccc23)C(=O)NC(C)c2ccccc2)cc1 (centres unmarked) [compound 345, 3-(1H-Indol-3-yl)-2-methyl-2-(4-methylsulfanyl-benzylamino)-N-(1-phenyl-ethyl)-propionamide] |
